The assay deals with PD-1/PD-L1 (Homo sapiens, UniProt Q9NZQ7). The assay can be described thus: TR-FRET PD-1/PD-L1 binding inhibition at the molecular level (free proteins). To be noted: Tag1-PD-L1 and Tag2-PD-1 proteins, twelve concentrations from 200 nM, 2 hours at room temperature, read-out: FRET assay (IC50). The protocol: In order to evaluate the inhibitory activity of the compounds synthesized according to the above Preparation Examples against PD-1/PD-L1 molecules in a free protein state,a TR-FRET (Time-Resolved Fluorescence Energy Transfer) experimetn was performed as described below.
Specifically, the compounds were prepared in a 96-well plate by serial dilution starting from 200 nM with 1/2 dilutions to obtain a total of twelve concentrations, and 2 µL of each compound solution was added to a 384-well plate. Thereafter, Tag1-PD-L1 protein and Tag2-PD-1 protein were each prepared at a 1x concentration, mixed at a ratio of 1:1, and 8 µL of the mixed solution was added to each well of the 384-well plate containing the compounds. Anti-Tag1 Eu Cryptate reagent and Anti-Tag2 XL665 antibody were each prepared at a 1* concentration, mixed at a ratio of 1:1, and 10 µL of the mixed solution was added to each well of the 384-well plate containing the compounds and proteins, followed by incubation at room temperature for 2 hours. Upon completion of the reaction, fluorescence signals at wavelengths of 620 nm and 665 nm were measured using a microplate reader.

pIC50: −log10 of the molar value. Where only a bound is given, the exact number is not on record here.

PD-1/PD-L1, sequence (Q9NZQ7 19-238 limits assumed): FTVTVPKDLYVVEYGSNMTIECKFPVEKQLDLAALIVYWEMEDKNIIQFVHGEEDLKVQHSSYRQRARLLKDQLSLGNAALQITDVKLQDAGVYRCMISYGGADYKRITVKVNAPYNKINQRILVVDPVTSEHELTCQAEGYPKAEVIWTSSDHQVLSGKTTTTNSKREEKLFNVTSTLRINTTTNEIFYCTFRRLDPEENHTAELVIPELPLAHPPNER

Regarding `O=C(Nc1cccc(-c2cccc(Nc3nc(C(F)F)nc4cc(CN5CC[C@@H](O)C5)cnc34)c2Cl)c1Cl)c1cc2n(n1)CCC[C@@H]2N1CC(C(=O)O)C1` (stereo in doubt) [Compound 262, 1-((S)-2-((2,2'-dichloro-3'-((2-(difluoromethyl)-7-(((R)-3-hydroxypyrrolidin-1-yl)methyl)pyrido[3,2-d]pyrimidin-4-yl)amino)-[1,1'-biphenyl]-3-yl)carbamoyl)-4,5,6,7-tetrahydropyrazolo[1,5-a]pyridin-4-yl)azetidine-3-carboxylic acid], the pIC50 is 7.00 to 8.00. The same measure for `Cc1c(NC(=O)c2cc3n(n2)CCC[C@@H]3N2CCC(O)CC2)cccc1-c1cccc(Nc2nc(C(F)(F)F)nc3cccnc23)c1C` (stereo in doubt) [Compound 286, (S)-N-(2,2'-dimethyl-3'-((2-(trifluoromethyl)pyrido[3,2-d]pyrimidin-4-yl)amino)-[1,1'-biphenyl]-3-yl)-4-(4-hydroxypiperidin-1-yl)-4,5,6,7-tetrahydropyrazolo[1,5-a]pyridine-2-carboxamide]: 7.00 to 8.00; for `O=C(Nc1cccc(-c2cccc(Nc3nc(C(F)F)nc4cccnc34)c2Cl)c1Cl)c1cc2n(n1)CCC[C@@H]2N1CCC(C(=O)O)CC1` (stereo in doubt) [Compound 290, (S)-1-(2-((2,2'-dichloro-3'-((2-(difluoromethyl)pyrido[3,2-d]pyrimidin-4-yl)amino)-[1,1'-biphenyl]-3-yl)carbamoyl)-4,5,6,7-tetrahydropyrazolo[1,5-a]pyridin-4-yl)piperidine-4-carboxylic acid]: 7.00 to 8.00; for `O=C(O)CN[C@H]1CCCn2nc(C(=O)Nc3cccc(-c4cccc(Nc5nc(C(F)F)nc6cc(CN7CC[C@@H](O)C7)cnc56)c4Cl)c3Cl)cc21` (stereo in doubt) [Compound 294, 2-(((S)-2-((2,2'-dichloro-3'-((2-(difluoromethyl)-7-(((R)-3-hydroxypyrrolidin-1-yl)methyl)pyrido[3,2-d]pyrimidin-4-yl)amino)-[1,1'-biphenyl]-3-yl)carbamoyl)-4,5,6,7-tetrahydropyrazolo[1,5-a]pyridin-4-yl)amino)acetic acid]: 7.00 to 8.00. The same measure for `CC(C)c1nc(Nc2cccc(-c3cccc(NC(=O)c4cc5n(n4)CCC[C@@H]5N4CCC(C(=O)O)CC4)c3Cl)c2Cl)c2ncccc2n1` (stereo in doubt) [Compound 298, (S)-1-(2-((2,2'-dichloro-3'-((2-isopropylpyrido[3,2-d]pyrimidin-4-yl)amino)-[1,1'-biphenyl]-3-yl)carbamoyl)-4,5,6,7-tetrahydropyrazolo[1,5-a]pyridin-4-yl)piperidine-4-carboxylic acid]: 7.00 to 8.00; for `CC(C)c1nc(Nc2cccc(-c3cccc(NC(=O)c4cc5n(n4)CCC[C@@H]5NC(C)(C)C(=O)O)c3Cl)c2Cl)c2ncccc2n1` (stereo in doubt) [Compound 300, (S)-2-((2-((2,2'-dichloro-3'-((2-isopropyl-pyrido[3,2-d]pyrimidin-4-yl)amino)-[1,1'-biphenyl]-3-yl)carbamoyl)-4,5,6,7-tetrahydropyrazolo[1,5-a]pyridin-4-yl)amino)-2-methylpropanoic acid]: 7.00 to 8.00; for `O=C(Nc1cccc(-c2cccc(Nc3nc(C(F)F)nc4cccnc34)c2Cl)c1Cl)c1cc2n(n1)CCC[C@@H]2N1CCC(O)CC1` (stereo in doubt) [Compound 306, (S)-N-(2,2'-dichloro-3'-((2-(difluoromethyl)pyrido[3,2-d]pyrimidin-4-yl)amino)-[1,1'-biphenyl]-3-yl)-4-(4-hydroxypiperidin-1-yl)-4,5,6,7-tetrahydropyrazolo[1,5-a]pyridine-2-carboxamide]: 7.00 to 8.00. Consider `Cc1c(NC(=O)c2cc3n(n2)CCC[C@H]3N2CCC(C(=O)O)CC2)cccc1-c1cccc(Nc2nc(C(F)(F)F)nc3cc(CN4CC[C@@H](O)C4)cnc23)c1C` (stereo in doubt) [Compound 343, 1-((R)-2-((3'-((7-(((R)-3-hydroxypyrrolidin-1-yl)methyl)-2-(trifluoromethyl)pyrido[3,2-d]pyrimidin-4-yl)amino)-2,2'-dimethyl-[1,1'-biphenyl]-3-yl)carbamoyl)-4,5,6,7-tetrahydropyrazolo[1,5-a]pyridin-4-yl)piperidine-4-carboxylic acid], for which the pIC50 is 7.00 to 8.00.

In the case of `Cc1c(NC(=O)c2cc3n(n2)CCCC3=O)cccc1-c1cccc(NC(=O)c2cc3n(n2)CCCC3=O)c1C` [Compound 1, N,N'-(2,2'-dimethyl-[1,1'-biphenyl]-3,3'-diyl)bis(4-oxo-4,5,6,7-tetrahydropyrazolo[1,5-a]pyridine-2-carboxamide)], the negative logarithm of the IC50 (pIC50) was greater than 8.00. Then `Cc1c(NC(=O)c2cc3n(n2)CCCC3=O)cccc1-c1cccc(NC(=O)c2cc3n(n2)CCCC3O)c1C` (stereo not drawn) [Compound 2, N-(2,2'-dimethyl-3'-(4-oxo-4,5,6,7-tetrahydropyrazolo[1,5-a]pyridine-2-carboxamido)-[1,1'-biphenyl]-3-yl)-4-hydroxy-4,5,6,7-tetrahydropyrazolo[1,5-a]pyridine-2-carboxamide], with greater than 8.00; and `Cc1c(NC(=O)c2cc3n(n2)CCCC3O)cccc1-c1cccc(NC(=O)c2cc3n(n2)CCCC3O)c1C` (stereo not drawn) [Compound 2-1, N,N'-(2,2'-dimethyl-[1,1'-biphenyl]-3,3'-diyl)bis(4-hydroxy-4,5,6,7-tetrahydropyrazolo[1,5-a]pyridine-2-carboxamide)], with greater than 8.00. In the case of `Cc1c(NC(=O)c2cc3n(n2)CCCC3=O)cccc1-c1cccc(NC(=O)c2cc3n(n2)CCCC3NCCO)c1C` (stereo not drawn) [Compound 3, N-(2,2'-dimethyl-3'-(4-oxo-4,5,6,7-tetrahydropyrazolo[1,5-a]pyridine-2-carboxamido)-[1,1'-biphenyl]-3-yl)-4-((2-hydroxyethyl)amino)-4,5,6,7-tetrahydropyrazolo[1,5-a]pyridine-2-carboxamide], the negative logarithm of the IC50 (pIC50) is greater than 8.00.

For the molecule `Cc1c(NC(=O)c2cc3n(n2)CCCC3O)cccc1-c1cccc(NC(=O)c2cc3n(n2)CCCC3NCCO)c1C` (stereo not drawn) [Compound 3-1, 4-hydroxy-N-(3'-(4-((2-hydroxyethyl)amino)-4,5,6,7-tetrahydropyrazolo[1,5-a]pyridine-2-carboxamido)-2,2'-dimethyl-[1,1'-biphenyl]-3-yl)-4,5,6,7-tetrahydropyrazolo[1,5-a]pyridine-2-carboxamide], the negative-log IC50 (pIC50) is greater than 8.00. The same measure for `CC(=O)NCCNC1CCCn2nc(C(=O)Nc3cccc(-c4cccc(NC(=O)c5cc6n(n5)CCCC6NCCNC(C)=O)c4C)c3C)cc21` (stereo not drawn) [Compound 5, N,N'-(2,2'-dimethyl-[1,1'-biphenyl]-3,3'-diyl)bis(4-((2-acetamidoethyl)amino)-4,5,6,7-tetrahydropyrazolo[1,5-a]pyridine-2-carboxamide)]: greater than 8.00. Regarding `Cc1c(NC(=O)c2cc3n(n2)CCCC3NCCO)cccc1-c1cccc(NC(=O)c2cc3n(n2)CCCC3NCCO)c1C` (stereo not drawn) [Compound 6, N,N'-(2,2'-dimethyl-[1,1'-biphenyl]-3,3'-diyl)bis(4-((2-hydroxyethyl)amino)-4,5,6,7-tetrahydropyrazolo[1,5-a]pyridine-2-carboxamide)], the negative logarithm of the IC50 (pIC50) is greater than 8.00.

As a reminder, the pIC50 is the negative decadic logarithm of the IC50, by convention in mol/L.

These data come from EP4755888A1 (ILAb Co., Ltd., priority 2023, dated 2025).
